Experimental findings from PubChem BioAssay (NCI) are described below.

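Grown in 96-well plates, cells were treated for 48 hours with each compound at five concentrations. Insufficient inhibition: endpoint recorded as highest concentration tested. Here, GI50 denotes the concentration required for 50% inhibition of growth. Definition used: TGI = concentration required for complete inhibition of growth.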

The experiment has as its system MDA-MB-468 breast. Nature of the experiment: DTP human tumour cell line panel, 48 h.
In the case of `COc1ccc(-c2n[nH]nc2-c2cc(OC)c3c(c2)OCO3)cc1`, the concentration for 50% growth inhibition (GI50) (in general, the concentration that inhibits growth by half) is 23 nM and the total growth inhibition concentration (TGI) – broadly, the concentration giving total growth inhibition – turned out to be 42600 nM. The matching figures for `CC/C(Cc1ccccc1)=C(/c1ccc(O)cc1)c1ccc(OCCN2CCCC2)cc1`: 1660 nM and 3280 nM. With `COc1ccc(-c2nsc3c2NC(=O)CC3c2cccc(Cl)c2)cc1` (stereo not drawn), the GI50 is 735 nM and the TGI amounted to 11000 nM.

In the case of `O=C1Nc2ccccc2/C1=C/c1cn(CC(O)Cn2cc(/C=C3\C(=O)Nc4ccccc43)c3ccccc32)c2ccccc12` (stereo not drawn), the GI50 was 2030 nM and the TGI is 3750 nM. Taken in the same sequence, the figures for `CCN(CC)c1ccc(/C=N/NC(=O)CSc2nc3ccccc3c(=O)n2Cc2ccc(S(N)(=O)=O)cc2)c(O)c1` were 524 nM and 5030 nM. Taken in the same sequence, the figures for `COc1cc(-c2cc3ncccc3c3[nH]c(=O)c4cccnc4c23)cc(OC)c1OC` were 1610 nM and 96100 nM. Taken in the same sequence, the figures for `O=C(Oc1ccccc1)C(Br)C(Br)c1ccccc1` (stereo not drawn) were 1610 nM and 3370 nM.

Consider `CCc1nc2cc(/C=C/C(=O)NO)ccc2c(=O)n1CCc1ccc(OC)cc1`, for which the GI50 was 1690 nM and the TGI is 5570 nM. Taken in the same sequence, the figures for `CCN(CC)c1ccc2nc3ccc(N=Nc4ccc(O)cc4)cc3[n+](-c3ccccc3)c2c1` were 1470 nM and 3610 nM. The matching figures for `CC(C)(C)c1nc(-c2cccc(NS(=O)(=O)c3c(F)cccc3F)c2F)c(-c2ccnc(N)n2)s1`: 31700 nM and > 100000 nM.

For the molecule `NCCOc1ncccc1/C=C1\c2ccccc2-c2ccc([N+](=O)[O-])cc21`, the concentration for 50% growth inhibition (GI50) is 71.2 nM and the TGI came out at 351 nM. Consider `COc1ccc2c(c1)O/C(=C\c1cccc(OCC(=O)Nc3nc(C)c(C)s3)c1)C2=O`, for which the GI50 is 274 nM and the total growth inhibition concentration (TGI) turned out to be 2120 nM. Taken in the same sequence, the figures for `CCc1nn2ncccc2c1-c1ccnc(NC2CC2)n1` were > 21200 nM and > 25000 nM. Taken in the same sequence, the figures for `CCOc1ccc(C(C)=O)cc1NC(=O)c1cccc(-c2nnn(CC)n2)c1` were 557 nM and 6070 nM.

For the molecule `O=C(O)Cn1ccc2ccccc21`, the GI50 was > 100000 nM and the TGI is > 100000 nM.

Regarding `O=C(/C=C/c1cc(Cl)ccc1Cl)Nc1ncc(Cc2ccc(Cl)cc2)s1`, the GI50 was 277 nM and the TGI was determined as 3080 nM.

On to `CC(=O)O[C@H](C[C@H](C(C)C)N(C)C(=O)[C@@H](NC(=O)[C@H]1CCCCN1C)C(C)C)c1cccc(C(=O)N[C@@H](Cc2ccccc2)C[C@H](C)C(=O)O)n1`, for which the GI50 was 5.39 nM and the TGI is 102 nM. Taken in the same sequence, the figures for `CN1CCN(CCCOc2cccc3nc(Nc4ccc(F)c(F)c4)ccc23)CC1` were 2110 nM and 6730 nM.

As to `CCCCCCNC(=O)Oc1ccc(/C(=C(\C)c2ccc(Cl)cc2)c2ccc(OCCN(C)C)cc2)cc1`, the GI50 was 1590 nM and the concentration for total growth inhibition (TGI) amounted to 3120 nM.

Regarding `Nc1ccc(-c2ccc3ncc4ccc(=O)n(-c5cccc(C(F)(F)F)c5)c4c3c2)cn1`, the 50% growth inhibitory concentration (GI50) was < 10 nM and the TGI turned out to be 43.1 nM. `NC(CSC(c1ccccc1)(c1ccccc1)c1ccc(F)cc1)C(=O)O` (stereo not drawn): the GI50 is 233 nM. Regarding `COc1ccc(-c2nn3ncccc3c2-c2ccnc(Nc3ccc4c(c3)OCCO4)n2)cc1`, the GI50 was 4000 nM and the TGI is > 21100 nM.

On to `C[C@H](NC(=O)c1c(C(F)F)nn(C)c1Oc1cccc(C(F)(F)F)c1)c1ccc(C(=O)O)cc1`, for which the GI50 is > 100000 nM and the TGI is > 100000 nM.

Regarding `Cc1c(C)c2c(c(C)c1OCC(=O)O)CC[C@@](C)(CCC[C@@H](C)CCC[C@@H](C)CCCC(C)C)O2`, the GI50 was 58100 nM and the TGI was 152000 nM.

Regarding `COc1cc(-c2nccc3cc4c(cc23)OCO4)cc(OC)c1OC`, the GI50 is 1620 nM and the concentration for total growth inhibition (TGI) is 6240 nM. The matching figures for `CCOC(=O)C#Cc1c(C(=O)OCC)nnn1[C@@H]1O[C@H](CO)[C@H]2OC3(CCCCC3)O[C@H]21`: 1780 nM and 3890 nM. Turning to `Cn1cncc1-c1c(F)cncc1NC(=O)c1c(N)nn2cc(F)cnc12`, the GI50 was 1960 nM and the concentration for total growth inhibition (TGI) is 16200 nM. The matching figures for `Oc1c(O)c(Cl)c(Cl)c(Cl)c1Cl`: 2580 nM and 7340 nM. The matching figures for `COc1cc(NC(C)CCCNC(C)C)c2ncccc2c1OC` (stereo not drawn): 25600 nM and > 100000 nM. As for `O=C(CSc1nc2sc3c(c2c(=O)n1-c1ccc(Cl)cc1)CCCC3)NNC(=O)Nc1cccc(C(F)(F)F)c1`, the GI50 is 2210 nM and the concentration for total growth inhibition (TGI) is 5360 nM. Taken in the same sequence, the figures for `COc1ccc2[nH]c(C(=O)OCc3ccc4cccc(O)c4n3)cc2c1` were 1370 nM and 3080 nM. On to `O=C(Nc1ccc2c(c1)OCCO2)C(=O)c1c[nH]c2ccccc12`, for which the GI50 is 1090 nM and the concentration for total growth inhibition (TGI) came to 20700 nM. The matching figures for `C=C1C(=O)O[C@H]2[C@H]1CC/C(COC(=O)NCCc1cccc(OC)c1)=C\CC[C@@]1(C)O[C@@H]21`: 850 nM and 3270 nM. Consider `CCCCN1C(=O)/C(=c2\sc3n(c2=O)C2C(NN=3)N(CC)C(=O)N2CC)c2ccccc21` (stereo not drawn), for which the GI50 is 361 nM and the concentration for total growth inhibition (TGI) is 2390 nM. The matching figures for `COc1cc(Nc2ncnc(Nc3ccc4c(n3)NC(=O)C(C)(C)O4)n2)cc(OC)c1OC`: 522 nM and > 100000 nM. Taken in the same sequence, the figures for `COc1cccc(NC(=O)c2sc3nc4c(cc3c2N)C(O)CCC4)c1` (stereo not drawn) were 88.1 nM and 6700 nM. Taken in the same sequence, the figures for `Cn1cc(C2=C(c3ccccc3C(F)(F)F)C(=O)NC2=O)c2ccccc21` were 11600 nM and > 25000 nM. For `COc1cc(CN(c2ccc(C)cc2)C2OC(=O)c3ccccc32)cc(OC)c1OC` (stereo not drawn), the GI50 is 132 nM and the TGI was 527 nM. Taken in the same sequence, the figures for `Cc1nc(Sc2nc3ccc([N+](=O)[O-])cc3s2)sc1C` were 1620 nM and 3590 nM. The matching figures for `Cc1noc(C)c1-c1cnc2c(-c3ccc(C(=O)O)cc3)cn([C@@H](C)c3ccccn3)c2c1`: 309 nM and 27200 nM. Taken in the same sequence, the figures for `O=C(/C=C\n1cnc(-c2cc(C(F)(F)F)cc(C(F)(F)F)c2)n1)N1CC(F)(F)C1` were 697 nM and 6190 nM.

With `COc1cc2nc(-c3cccc4cccnc34)nc(NC3CCN(Cc4ccccc4)CC3)c2cc1OC`, the GI50 is 1430 nM and the TGI came to 2960 nM.
